Source: paper PMC5540273, “Progress towards a public chemogenomic set for protein kinases and a call for contributions” (PLoS ONE, 2017)

Columns and labels:
Assay in all cases: KINOMEscan competition binding
BMX = molecular target: T1, BMX (Homo sapiens, UniProt P51813); settings: read-out: %Inh BMX
T1 sequence (P51813 1-675): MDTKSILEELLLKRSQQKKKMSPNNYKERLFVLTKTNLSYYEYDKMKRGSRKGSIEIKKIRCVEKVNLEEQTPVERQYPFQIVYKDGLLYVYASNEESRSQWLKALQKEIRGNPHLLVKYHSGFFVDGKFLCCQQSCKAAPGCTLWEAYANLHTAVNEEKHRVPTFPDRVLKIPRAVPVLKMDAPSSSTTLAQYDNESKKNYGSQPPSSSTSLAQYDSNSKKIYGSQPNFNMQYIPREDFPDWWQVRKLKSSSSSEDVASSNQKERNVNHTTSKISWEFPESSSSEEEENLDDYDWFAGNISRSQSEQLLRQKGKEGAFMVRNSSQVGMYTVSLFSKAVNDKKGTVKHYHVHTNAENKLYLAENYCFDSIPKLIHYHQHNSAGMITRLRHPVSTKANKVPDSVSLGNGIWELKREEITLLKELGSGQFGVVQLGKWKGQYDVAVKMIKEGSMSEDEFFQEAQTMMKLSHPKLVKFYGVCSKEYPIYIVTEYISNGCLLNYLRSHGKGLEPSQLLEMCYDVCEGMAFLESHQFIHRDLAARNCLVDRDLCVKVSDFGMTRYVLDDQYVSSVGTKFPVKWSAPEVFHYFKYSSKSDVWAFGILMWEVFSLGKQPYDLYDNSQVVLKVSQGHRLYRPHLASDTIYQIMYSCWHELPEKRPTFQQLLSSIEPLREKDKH

CAMK2A = CAMK2A (Homo sapiens, UniProt Q9UQM7); settings: read-out: %Inh CAMK2A
CAMK4 = molecular target: T2, CAMK4 (Homo sapiens, UniProt Q16566); settings: read-out: %Inh CAMK4
T2 sequence (Q16566 1-473): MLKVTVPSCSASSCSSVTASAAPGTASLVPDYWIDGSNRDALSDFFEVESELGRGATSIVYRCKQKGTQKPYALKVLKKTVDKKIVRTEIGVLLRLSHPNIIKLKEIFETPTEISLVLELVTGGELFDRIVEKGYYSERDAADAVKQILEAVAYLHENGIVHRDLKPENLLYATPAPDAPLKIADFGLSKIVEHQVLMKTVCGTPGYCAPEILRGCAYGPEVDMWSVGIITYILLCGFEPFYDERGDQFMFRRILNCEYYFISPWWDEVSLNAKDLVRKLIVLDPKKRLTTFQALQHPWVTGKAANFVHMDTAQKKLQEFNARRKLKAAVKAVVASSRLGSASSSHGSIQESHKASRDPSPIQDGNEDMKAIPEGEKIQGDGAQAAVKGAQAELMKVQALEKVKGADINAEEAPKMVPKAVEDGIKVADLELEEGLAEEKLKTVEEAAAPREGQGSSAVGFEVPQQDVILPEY

CDK4 = CDK4 (Homo sapiens, UniProt P11802); settings: read-out: %Inh CDK4
CSNK1D = CSNK1D (Homo sapiens, UniProt P48730); settings: read-out: %Inh CSNK1D
CSNK1G1 = CSNK1G1 (Homo sapiens, UniProt Q9HCP0); settings: read-out: %Inh CSNK1G1
ERBB3 = ERBB3 (Homo sapiens, UniProt P21860); settings: read-out: %Inh ERBB3
GCN2(Kin.Dom.2,S808G) = molecular target: T3, GCN2(Kin.Dom.2,S808G) (Homo sapiens, UniProt Q9P2K8, S808G); settings: read-out: %Inh GCN2(Kin.Dom.2,S808G)
T3 sequence (Q9P2K8 590-1001 S808G limits assumed): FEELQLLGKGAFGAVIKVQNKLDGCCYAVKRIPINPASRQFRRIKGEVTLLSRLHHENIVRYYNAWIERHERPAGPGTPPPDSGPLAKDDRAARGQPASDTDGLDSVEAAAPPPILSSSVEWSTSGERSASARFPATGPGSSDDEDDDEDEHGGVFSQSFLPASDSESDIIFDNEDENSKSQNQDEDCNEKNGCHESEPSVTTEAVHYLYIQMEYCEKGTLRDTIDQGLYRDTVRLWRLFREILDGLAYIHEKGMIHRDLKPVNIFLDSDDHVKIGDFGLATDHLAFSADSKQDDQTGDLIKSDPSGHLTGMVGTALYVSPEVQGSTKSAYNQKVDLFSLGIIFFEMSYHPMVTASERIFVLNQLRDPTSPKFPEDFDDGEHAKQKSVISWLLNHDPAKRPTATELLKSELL

GRK1 = molecular target: T4, GRK1 (Homo sapiens, UniProt Q15835); settings: read-out: %Inh GRK1
T4 sequence (Q15835 1-563): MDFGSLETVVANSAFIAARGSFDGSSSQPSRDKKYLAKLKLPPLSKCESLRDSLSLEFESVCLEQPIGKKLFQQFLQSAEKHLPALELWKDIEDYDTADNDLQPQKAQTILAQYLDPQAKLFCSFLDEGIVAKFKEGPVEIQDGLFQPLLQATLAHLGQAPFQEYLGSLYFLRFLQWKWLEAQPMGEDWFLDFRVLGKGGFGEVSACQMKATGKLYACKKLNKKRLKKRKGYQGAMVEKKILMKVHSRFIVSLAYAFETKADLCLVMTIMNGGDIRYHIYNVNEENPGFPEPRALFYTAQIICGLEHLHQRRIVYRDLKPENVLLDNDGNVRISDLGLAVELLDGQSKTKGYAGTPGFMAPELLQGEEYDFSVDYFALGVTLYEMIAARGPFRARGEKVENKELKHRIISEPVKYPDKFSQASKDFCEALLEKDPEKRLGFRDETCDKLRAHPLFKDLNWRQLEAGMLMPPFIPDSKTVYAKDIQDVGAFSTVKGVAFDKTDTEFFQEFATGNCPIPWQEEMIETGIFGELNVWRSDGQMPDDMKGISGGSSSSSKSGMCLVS

GRK4 = GRK4 (Homo sapiens, UniProt P32298); settings: read-out: %Inh GRK4
HPK1 = HPK1 (Homo sapiens, UniProt Q92918); settings: read-out: %Inh HPK1
IRAK1 = IRAK1 (Homo sapiens, UniProt P51617); settings: read-out: %Inh IRAK1
Sequence of IRAK1 (P51617 whole entry): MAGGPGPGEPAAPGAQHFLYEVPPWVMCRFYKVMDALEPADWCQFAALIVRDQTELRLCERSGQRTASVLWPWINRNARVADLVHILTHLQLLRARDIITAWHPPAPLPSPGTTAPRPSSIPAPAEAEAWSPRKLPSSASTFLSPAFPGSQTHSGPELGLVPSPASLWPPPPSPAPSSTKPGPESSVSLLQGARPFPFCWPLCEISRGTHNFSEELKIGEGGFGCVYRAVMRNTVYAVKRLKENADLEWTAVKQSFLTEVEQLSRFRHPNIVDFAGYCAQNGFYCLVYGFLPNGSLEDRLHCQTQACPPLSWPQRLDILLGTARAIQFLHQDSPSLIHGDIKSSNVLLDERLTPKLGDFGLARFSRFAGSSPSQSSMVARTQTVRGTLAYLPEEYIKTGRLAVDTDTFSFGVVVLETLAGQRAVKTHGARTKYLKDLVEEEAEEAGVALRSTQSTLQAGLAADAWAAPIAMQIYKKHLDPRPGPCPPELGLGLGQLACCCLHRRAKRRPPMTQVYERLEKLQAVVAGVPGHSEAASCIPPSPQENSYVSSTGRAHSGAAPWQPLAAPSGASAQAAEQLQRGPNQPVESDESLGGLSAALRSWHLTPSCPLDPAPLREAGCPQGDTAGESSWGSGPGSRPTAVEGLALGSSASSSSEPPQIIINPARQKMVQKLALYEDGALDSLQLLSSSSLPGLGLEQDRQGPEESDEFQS

Sequence of HPK1 (Q92918 whole entry): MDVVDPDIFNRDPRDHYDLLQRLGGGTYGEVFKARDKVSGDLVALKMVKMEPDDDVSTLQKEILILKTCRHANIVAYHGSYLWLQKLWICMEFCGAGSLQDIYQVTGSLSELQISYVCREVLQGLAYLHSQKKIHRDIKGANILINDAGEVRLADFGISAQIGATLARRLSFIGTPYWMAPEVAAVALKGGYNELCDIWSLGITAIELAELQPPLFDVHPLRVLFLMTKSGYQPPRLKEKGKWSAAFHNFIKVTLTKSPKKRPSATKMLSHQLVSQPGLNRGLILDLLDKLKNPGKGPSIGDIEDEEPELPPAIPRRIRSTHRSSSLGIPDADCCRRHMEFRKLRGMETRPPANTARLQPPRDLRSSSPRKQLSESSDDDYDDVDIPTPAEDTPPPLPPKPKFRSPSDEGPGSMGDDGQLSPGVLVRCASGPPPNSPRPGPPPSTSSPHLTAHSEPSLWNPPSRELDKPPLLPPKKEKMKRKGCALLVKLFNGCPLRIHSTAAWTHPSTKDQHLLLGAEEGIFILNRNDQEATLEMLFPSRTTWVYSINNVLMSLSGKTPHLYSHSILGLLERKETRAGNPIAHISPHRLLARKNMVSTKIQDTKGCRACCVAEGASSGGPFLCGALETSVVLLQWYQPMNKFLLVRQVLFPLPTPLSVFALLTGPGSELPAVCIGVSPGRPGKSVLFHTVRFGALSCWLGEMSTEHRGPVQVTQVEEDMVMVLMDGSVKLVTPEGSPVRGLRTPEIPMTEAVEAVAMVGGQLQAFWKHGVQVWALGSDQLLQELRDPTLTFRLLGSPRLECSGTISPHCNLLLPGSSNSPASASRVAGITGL
Sequence of ERBB3 (P21860 20-1342): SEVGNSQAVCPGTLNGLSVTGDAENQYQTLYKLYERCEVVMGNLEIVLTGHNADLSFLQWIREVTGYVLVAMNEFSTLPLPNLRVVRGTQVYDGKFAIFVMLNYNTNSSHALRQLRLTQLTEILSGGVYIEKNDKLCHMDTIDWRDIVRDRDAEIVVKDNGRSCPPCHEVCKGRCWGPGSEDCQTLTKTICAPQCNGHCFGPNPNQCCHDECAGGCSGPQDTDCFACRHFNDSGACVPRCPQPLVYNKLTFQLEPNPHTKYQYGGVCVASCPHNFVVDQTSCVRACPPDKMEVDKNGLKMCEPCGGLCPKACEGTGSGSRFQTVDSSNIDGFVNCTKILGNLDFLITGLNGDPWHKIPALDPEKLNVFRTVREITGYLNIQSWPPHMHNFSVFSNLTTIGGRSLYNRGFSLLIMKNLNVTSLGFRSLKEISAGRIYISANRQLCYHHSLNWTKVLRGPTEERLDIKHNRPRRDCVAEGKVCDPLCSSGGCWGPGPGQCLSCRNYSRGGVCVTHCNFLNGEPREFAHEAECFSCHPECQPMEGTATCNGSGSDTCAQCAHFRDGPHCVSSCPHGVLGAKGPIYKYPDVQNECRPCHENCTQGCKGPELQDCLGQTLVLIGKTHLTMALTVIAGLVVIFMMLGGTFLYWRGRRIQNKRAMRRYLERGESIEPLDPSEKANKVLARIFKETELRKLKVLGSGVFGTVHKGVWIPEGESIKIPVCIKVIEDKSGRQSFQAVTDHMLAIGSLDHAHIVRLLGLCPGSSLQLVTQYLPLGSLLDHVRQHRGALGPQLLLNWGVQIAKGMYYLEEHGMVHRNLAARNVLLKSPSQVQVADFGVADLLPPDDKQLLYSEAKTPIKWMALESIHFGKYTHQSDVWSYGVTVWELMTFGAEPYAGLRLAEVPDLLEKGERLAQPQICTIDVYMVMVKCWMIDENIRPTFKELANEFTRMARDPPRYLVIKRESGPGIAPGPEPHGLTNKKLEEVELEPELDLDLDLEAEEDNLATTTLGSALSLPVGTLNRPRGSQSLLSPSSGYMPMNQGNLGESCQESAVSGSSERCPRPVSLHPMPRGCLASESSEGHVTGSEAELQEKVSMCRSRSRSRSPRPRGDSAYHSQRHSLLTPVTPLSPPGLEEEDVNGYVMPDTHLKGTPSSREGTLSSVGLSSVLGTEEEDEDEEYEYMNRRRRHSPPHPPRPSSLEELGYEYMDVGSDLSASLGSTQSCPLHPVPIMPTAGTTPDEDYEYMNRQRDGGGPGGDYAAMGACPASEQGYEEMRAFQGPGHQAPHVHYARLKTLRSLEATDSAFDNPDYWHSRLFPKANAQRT
Sequence of CDK4 (P11802 whole entry): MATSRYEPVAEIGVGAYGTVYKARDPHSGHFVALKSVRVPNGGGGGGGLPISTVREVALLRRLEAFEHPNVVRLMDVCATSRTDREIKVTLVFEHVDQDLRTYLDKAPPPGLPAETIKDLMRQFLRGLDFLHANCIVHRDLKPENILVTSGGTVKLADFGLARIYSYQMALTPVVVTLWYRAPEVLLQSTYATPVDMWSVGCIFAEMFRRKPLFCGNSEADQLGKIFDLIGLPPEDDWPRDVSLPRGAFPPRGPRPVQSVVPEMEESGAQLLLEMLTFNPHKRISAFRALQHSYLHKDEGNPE
Sequence of GRK4 (P32298 whole entry): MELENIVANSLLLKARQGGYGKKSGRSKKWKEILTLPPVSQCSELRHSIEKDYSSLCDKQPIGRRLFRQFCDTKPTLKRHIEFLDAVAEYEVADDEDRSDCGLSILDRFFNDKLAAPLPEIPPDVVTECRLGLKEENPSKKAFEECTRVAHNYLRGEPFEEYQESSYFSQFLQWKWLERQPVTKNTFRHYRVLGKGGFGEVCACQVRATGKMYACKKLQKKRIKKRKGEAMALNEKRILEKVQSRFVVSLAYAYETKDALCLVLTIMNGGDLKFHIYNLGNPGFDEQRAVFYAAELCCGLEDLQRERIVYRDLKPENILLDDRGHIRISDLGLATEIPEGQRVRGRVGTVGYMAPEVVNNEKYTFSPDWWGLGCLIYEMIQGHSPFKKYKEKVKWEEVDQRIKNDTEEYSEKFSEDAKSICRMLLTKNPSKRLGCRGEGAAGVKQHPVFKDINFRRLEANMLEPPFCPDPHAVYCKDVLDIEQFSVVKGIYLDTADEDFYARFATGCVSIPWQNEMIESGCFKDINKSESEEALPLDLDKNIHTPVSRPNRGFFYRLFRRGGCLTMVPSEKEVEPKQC
Sequence of CAMK2A (Q9UQM7 whole entry): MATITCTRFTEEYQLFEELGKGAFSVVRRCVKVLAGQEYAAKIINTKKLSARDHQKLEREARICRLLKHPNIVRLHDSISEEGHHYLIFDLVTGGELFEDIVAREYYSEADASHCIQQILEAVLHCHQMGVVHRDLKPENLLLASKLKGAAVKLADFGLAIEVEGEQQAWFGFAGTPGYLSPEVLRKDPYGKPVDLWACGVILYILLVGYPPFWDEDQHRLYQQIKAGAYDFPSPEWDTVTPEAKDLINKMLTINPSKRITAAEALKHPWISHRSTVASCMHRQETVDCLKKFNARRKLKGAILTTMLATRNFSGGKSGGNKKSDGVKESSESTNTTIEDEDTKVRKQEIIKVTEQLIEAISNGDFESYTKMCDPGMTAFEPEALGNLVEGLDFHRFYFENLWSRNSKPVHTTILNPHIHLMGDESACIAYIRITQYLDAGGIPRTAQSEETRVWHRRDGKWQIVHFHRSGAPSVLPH
Sequence of CSNK1G1 (Q9HCP0 whole entry): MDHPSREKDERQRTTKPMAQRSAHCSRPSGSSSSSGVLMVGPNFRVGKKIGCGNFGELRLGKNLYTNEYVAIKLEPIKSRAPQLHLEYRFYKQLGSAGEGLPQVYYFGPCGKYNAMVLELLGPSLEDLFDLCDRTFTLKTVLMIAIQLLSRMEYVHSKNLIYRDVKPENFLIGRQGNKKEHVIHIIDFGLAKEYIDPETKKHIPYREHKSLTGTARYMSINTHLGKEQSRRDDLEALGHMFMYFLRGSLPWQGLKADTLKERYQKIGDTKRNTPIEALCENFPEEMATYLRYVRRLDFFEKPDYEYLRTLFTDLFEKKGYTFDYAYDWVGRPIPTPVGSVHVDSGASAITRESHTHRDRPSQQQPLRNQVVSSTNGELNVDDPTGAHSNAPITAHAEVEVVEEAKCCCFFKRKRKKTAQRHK

| Structure (SMILES) | inhibition at 1 µM (BMX) [%] | inhibition at 1 µM (CAMK2A) [%] | inhibition at 1 µM (CAMK4) [%] | inhibition at 1 µM (CDK4) [%] | inhibition at 1 µM (CSNK1D) [%] | inhibition at 1 µM (CSNK1G1) [%] | inhibition at 1 µM (ERBB3) [%] | inhibition at 1 µM (GCN2(Kin.Dom.2,S808G)) [%] | inhibition at 1 µM (GRK1) [%] | inhibition at 1 µM (GRK4) [%] | inhibition at 1 µM (HPK1) [%] | inhibition at 1 µM (IRAK1) [%] |
| --- | --- | --- | --- | --- | --- | --- | --- | --- | --- | --- | --- | --- |
| Cn1cc(-c2cnc(N)c3c(-c4ccc5c(c4)CCN5C(=O)Cc4ccccc4)csc23)cn1 [UNC10225012A] | 57 | 29 | 0 | 0 | 0 | 21 | 4 | 91.2 | 0 | 7 | 94 | 0 |
| O=c1cc(N2CCOCC2)nc2n(Cc3cccc(Cl)c3Cl)c(C3CC3)nn12 [UNC10225469A] | 19 | 25 | 5 | 0 | 7 | 0 | 9 | 0 | 0 | 0 | 14 | 0 |
| COc1cccc(OC)c1C(=O)Nc1cccc(-c2nn3ccccc3c2-c2ccnc(Nc3cccc(F)c3)n2)c1 [UNC10225310A] | 21 | 27 | 0 | 0 | 9 | 14 | 0 | 0 | 0 | 0 | 2 | 0 |
| CS(=O)(=O)Cc1ccc(Nc2nccc(-c3c(-c4cccc(NC(=O)C5CCCCC5)c4)nn4ncccc34)n2)cc1 [UNC10225159A] | 37 | 15 | 0 | 18 | 0 | 2 | 22 | 0 | 0 | 0 | 14 | 24 |
| Cc1ccc(NC(=O)Nc2cccc(C(F)(F)F)c2)cc1 [UNC10225187A] | 0 | 32 | 5 | 0 | 0 | 0 | 17 | 0 | 2 | 0 | 0 | 0 |
